The term EC50 denotes the midpoint of the concentration-response curve. Read a high EC50 as weaker potency.

Entries after “also recorded” stand apart in the source; their conditions may differ.

Here are results for six molecules from publication PMC5652693, “Coupling to a cancer-selective heparan-sulfate-targeted branched peptide can by-pass breast cancer cell resistance to methotrexate” (Oncotarget, 2017).

Series [1] relates to MCF-7 and MDA-MB 231 cells. The experiment in a line: Transporter-mediated efflux of Rho 123 by flow cytometry. It is filed as cell-based, human. To be noted: 1 μM Rho 123 for 10 minutes, washed, fluorescence monitored 0-120 minutes by flow cytometry. The procedure:
(§1) All experiments were performed using 2 × 10^5 MCF-7 or MDA-MB 231 cells in 96 well U-bottom plates. All dilutions were performed in PBS, containing 5 mM EDTA and 0.5% BSA. 10,000 events were evaluated in a BD FACS Canto II or a BD FACS Calibur (Becton Dickinson, NJ USA). The results were analyzed by FCS Express 6 Flow cytometry software.
To analyze active cell drug export mechanisms, MCF-7 and MDA-MB 231 cells were exposed to 1 μM Rho 123 for 10 minutes, then washed twice with PBS-5 mM EDTA-[…] to remove excess of Rho 123, and fluorescence was monitored immediately (T0) and after 10, 20, 30, 45, 60, 90 and 120 minutes. Each step was followed by three washes in PBS-5 mM EDTA-0.5% BSA. P values were calculated using two-tailed Student's t-test (99% confidence interval) using Graph Pad Prism 5.03 software.
In general terms: A flow cytometer gives signals particle by particle.

For series [2], the system named is NT4 binding to MDA-MB 231 cells. The experiment in a line: Inhibition of NT4 binding by heparin or heparin binding proteins (flow cytometry), MDA-MB 231. It is filed as cell-based, human. To be noted: 250 nM biotinylated NT4; heparin 20, 10 and 1 μg/ml or 1 μM Midkine or Apolipoprotein E4; 30 min, room temperature; Streptavidin-FITC. The procedure: as §1
(§2) Inhibition of NT4 binding by heparin was carried out incubating cells with 250 nM biotinylated NT4 and various concentrations (20 μg/ml, 10 μg/ml and 1 μg/ml) of heparin for 30 min at room temperature. Inhibition of NT4 binding by heparin binding proteins was carried out incubating cells with 250 nM biotinylated NT4 and 1 μM Midkine or Apolipoprotein E4 for 30 min at room temperature. Cells were finally incubated with 1 μg/ml Streptavidin-FITC.

The subject of series [3] is NT4 binding to MCF-7 cells. The experiment in a line: Inhibition of NT4 binding by heparin or heparin binding proteins (flow cytometry), MCF-7. The format is cell-based, human. To be noted: 250 nM biotinylated NT4; heparin 20, 10 and 1 μg/ml or 1 μM Midkine or Apolipoprotein E4; 30 min, room temperature; Streptavidin-FITC. As for the experimental part:
as §1, §2

Series [4] has as its system A375 human melanoma cells. The experiment in a line: MTX cytotoxicity screening, A375. It is filed as cell-based. To be noted: A-375. As for the experimental part:
(§3) MCF-7 human breast adenocarcinoma, MDA-MB 231 human breast adenocarcinoma, T-24 human bladder carcinoma, PANC-1 human pancreatic carcinoma, HT29 human colon adenocarcinoma, A375 human melanoma, HT-1376 human bladder carcinoma and OVCAR-3 human ovarian carcinoma cells were grown in their recommended media supplemented with 10% fetal calf serum, 200 μg/ml glutamine, 100 μg/ml streptomycin, 60 μg/ml penicillin, and maintained at 37°C, 5% CO2. MDA-MB 231 was maintained at 37°C without CO2. Cell lines were purchased from ATCC.
(§4) MCF-7 and MDA-MB 231 cells were plated at a density of 5 × 10^3 per well in 96-well microplates. […] Cell growth was analyzed after 6 days of incubation at 37°C. Growth inhibition was assessed by 3-(4,5-dimethylthiazol-2-yl)-2,5-diphenyltetrazolium bromide (MTT). Cytotoxicity of drug-conjugated NT4 was compared with that of the corresponding free drugs. The experiment was performed twice in triplicate. EC50 values were calculated by non-linear regression analysis using Graph Pad Prism 5.03 software. Values from untreated controls gave 100% cell viability.

Series [5] deals with T-24 human bladder carcinoma cells. The experiment in a line: MTX cytotoxicity screening, T-24. It is filed as cell-based. The procedure: as §3, §4
Series [6] deals with MDA-MB 231 human breast adenocarcinoma cells. In words: Cytotoxicity (MTT growth inhibition) in MTX-resistant MDA-MB 231 cells. To be noted: MDA-MB 231, 5 × 10^3 cells per well, 6 days at 37°C, twice in triplicate (Figure 6: mean of six experiments ± SD). It is filed as cell-based. The procedure:
as §3
(§5) MCF-7 and MDA-MB 231 cells were plated at a density of 5 × 10^3 per well in 96-well microplates. […] Cell growth was analyzed after 6 days of incubation at 37°C. Growth inhibition was assessed by 3-(4,5-dimethylthiazol-2-yl)-2,5-diphenyltetrazolium bromide (MTT). Cytotoxicity of drug-conjugated NT4 was compared with that of the corresponding free drugs. The experiment was performed twice in triplicate. EC50 values were calculated by non-linear regression analysis using Graph Pad Prism 5.03 software.

The test system of series [7] is HT29 human colon adenocarcinoma cells. In words: MTX cytotoxicity screening, HT29. The format is cell-based. To be noted: HT-29. The procedure: as §3, §4
The test system of series [8] is PANC-1 human pancreatic carcinoma cells. In words: MTX cytotoxicity screening, PANC-1. The format is cell-based. The procedure:
as §3, §4

Another series relates to MCF-7 cells. The experiment in a line: Cytotoxicity with and without heparin, MCF-7. The format is cell-based, human. The conditions noted are these: MCF-7, 610 pM to 10 μM compound in the presence of 1 μM heparin, 6 days at 37°C, MTT. The procedure: as §5
The subject of series [9] is HT-1376 human bladder carcinoma cells. The experiment in a line: MTX cytotoxicity screening, HT-1376. The format is cell-based. The procedure: as §3, §4
For series [10], the system named is OVCAR-3 human ovarian carcinoma cells. The experiment in a line: MTX cytotoxicity screening, OVCAR-3. It is filed as cell-based. As for the experimental part:
as §3, §4

The next series has as its system MDA-MB 231 cells. The experiment in a line: Cytotoxicity with and without heparin, MDA-MB 231. The format is cell-based, human. The conditions noted are these: MDA-MB 231, 610 pM to 10 μM compound in the presence of 1 μM heparin, 6 days at 37°C, MTT. The procedure: as §5
For series [11], the system named is MCF-7 human breast adenocarcinoma cells. In words: Cytotoxicity (MTT growth inhibition) in MTX-sensitive MCF-7 cells. The format is cell-based. The conditions noted are these: MCF7, MCF-7, 5 × 10^3 cells per well, 6 days at 37°C, twice in triplicate (Figure 6: mean of six experiments ± SD). The procedure:
as §3, §5

Series [12] has as its system orthotopic model of breast cancer. Also noted: method as in PMID 26626158. The conditions noted are these: orthotopic model of breast cancer in mice, identical experimental conditions for conjugate and free drug; cited from earlier work. An excerpt:
In previous studies we investigated the cancer selectivity of tetra-branched peptides containing the sequence of human neurotensin, which we named NT4. We developed theranostic molecules for tumor imaging or therapy by coupling NT4 to different functional units or liposomes.

Take `COC(=O)c1ccccc1-c1c2ccc(=N)cc-2oc2cc(N)ccc12` [Rho 123, Rhodamine 123]: the “drug efflux (Rho 123 signal decrease) compared between cell lines” value in [1] was “comparable in the two cell lines”.

Regarding “Apolipoprotein E4: heparin binding protein”, the “inhibition of NT4 binding to MDA-MB 231 cells” value in [2] is reported as “inhibited”. Moreover, the “inhibition of NT4 binding to MCF-7 cells” value in series [3] was “inhibited”.

`CN(Cc1cnc2nc(N)nc(N)c2n1)c1ccc(C(=O)N[C@@H](CCC(=O)O)C(=O)O)cc1` [MTX, methotrexate]: the concentration for a half-maximal effect (EC50) is 33.7 nM in [4]; 80.7 nM in series [5]; 506 nM in [6]; 60.9 nM in [7]; 23.4 nM in series [8]; 171 nM in series [9]. In addition, the EC50 in [10] came out at 89.5 nM; in series [11] it was 25.8 nM. Further, the “effect of heparin on cytotoxicity” value in the series with MCF-7 cells and in the series with MDA-MB 231 cells was “did not affect” each time.

Take `CC(=O)O[C@H]1C(=O)[C@@]2(C)[C@H]([C@H](OC(=O)c3ccccc3)[C@]3(O)C[C@H](OC(=O)[C@H](O)[C@@H](NC(=O)c4ccccc4)c4ccccc4)C(C)=C1C3(C)C)[C@]1(OC(C)=O)CO[C@@H]1C[C@@H]2O` [paclitaxel]: the tumor regression entry in series [12] is reported as “not achieved”.

In the case of heparin, the “inhibition of NT4 binding to MDA-MB 231 cells” value in [2] is listed as “inhibited; also recorded: abolished”. Moreover, the “inhibition of NT4 binding to MCF-7 cells” value in series [3] is recorded as “inhibited; also recorded: abolished”.

B1: Midkine: heparin binding protein (protein, UniProt P21741 21-143, looked up)
Midkine: VAKKKDKVKKGGPGSECAEWAWGPCTPSSKDCGVGFREGTCGAQTQRIRCRVPCNWKKEFGADCKYKFENWGACDGGTGTKVRQGTLKKARYNAQCQETIRVTKPCTPKTKAKAKAKKGKGKD
As to B1, in [2], the “inhibition of NT4 binding to MDA-MB 231 cells” value is given as “inhibited”. Moreover, the “inhibition of NT4 binding to MCF-7 cells” value in series [3] is “inhibited”.
